Where only a bound is given, the exact number is not on record here.

For data set [1], the target named is Catalytic domain of MMP-13 (human recombinant) (Homo sapiens (Human), UniProt P45452). The data set is described as follows: MMP-13 inhibition assay. It is filed as biochemical. The protocol:
Catalytic domain of MMP-13 (human recombinant) enzyme was then added to the compound solution. […] The time-dependent increase in fluorescence is measured at the 355 nm excitation and 405 nm emission by automatic plate multireader.

Data set [2] in a line: In vivo rat pharmacokinetics, oral administration. The conditions noted are these: plasma, PO 1.0 mg/kg, male Lewis rats, mean. The protocol: Six (6) male Lewis rats were used. Fasting was conducted at least 16 hours prior to dose administration. Food was returned at approximately 4 hours post dose. The animals were placed into 2 groups of 3 animals per group. The oral (PO) formulation for Groups 1 & 2 were prepared on the day of dosing at a target concentration of 0.5 mg/mL in 0.5% Methylcellulose (400 cps) to produce a white, homogeneous suspension. Dosing was performed as outlined in Table 24:
Each animal in Group 1 received prepared compound (56) by oral dose administration at a target dose level of 1.0 mg/kg and at a dose volume of 2 mL/kg. Each animal in Group 2 received prepared compound (45) by oral dose administration at a target dose level of 1.0 mg/kg and at a dose volume of 2 mL/kg (Table 24). Whole blood samples (0.250 mL; K2EDTA anticoagulant) were collected from each animal through a jugular vein catheter. Whole blood samples were collected from all animals pre-dose, and at 0.25, 0.5, 1, 2, 4, 8, 16, and 24 hours after dose administration. All blood samples were immediately placed on ice until processing. Whole blood samples were centrifuged at 2200×g for 10 minutes in a refrigerated centrifuge (5±3° C.) to isolate plasma. The plasma samples were transferred to individual polypropylene vials and immediately placed on dry ice before storage at nominally −20±5° C. The plasma samples some time later were then thawed and extracted and analyzed by high pressure liquid chromatography (HPLC) coupled to Mass Spectrometery (MS) (Table 25). Pharmacokinetic parameters (Table 25) were estimated using WinNonlin® pharmacokinetic software (Version No. 5.2.1) using a non-compartmental approach consistent with the PO route of administration.

The conditions of data set [3]: clinical; cited from earlier work.
Data set [4] in a line: In-vitro human microsomal stability. It is filed as in vitro ADME. The conditions noted are these: human microsomes, compound 1 microMoles, at T = 60 minutes. Here is the method:
(§1) Human and Rat microsomal stability was determined for select compounds following the method of Houston (Houston, J B; Biochem. Pharmacol. 47, (1994), 1469). 1 μM concentration of compound and separate human and Rat microsomes (0.3 mg/mL, BD bioscience) were used in the in-vitro assay. To ensure proper energy supply for microsomal degradation of compound, an energy regenerating system comprised of 100 mM potassium phosphate, 2 mM NADPH, 3 mM MgCl2, pH=7.4 and the microsomal protein is added to each sample and the resulting suspension is then incubated in duplicate for 60 min at 37° C. in a rotary shaker. A control is run for each test agent in duplicate omitting NADPH to detect NADPH-free degradation. At T=0 and T=60 min., an aliquot is removed from each experimental and control reaction and then mixed with an equal volume of ice-cold Stop Solution (consisting of 0.3% acetic acid in acetonitrile containing haloperidol and diclofenac as internal standards). Stopped reactions are then incubated for at least ten minutes at −20° C., and an additional volume of water is then added. The samples are then centrifuged to remove precipitated protein, and the supernatants are then analyzed by LC-MS/MS to determine the percentage of compound remaining. The LC-MS/MS system used was an Agilent 6410 mass spectrometer coupled with an Agilent 1200 HPLC and a CTC PAL chilled autosampler, all controlled by MassHunter software (Agilent), or an ABI2000 mass spectrometer coupled with an Agilent 1100 HPLC and a CTC PAL chilled autosampler, all controlled by Analyst software (ABI). After separation on a C18 reverse phase HPLC column (Agilent, Waters, or equivalent) using an acetonitrile-water gradient system, peaks were analyzed by mass spectrometry (MS) using ESI ionization in MRM mode. Verapamil (high metabolized) and Warfarin (low metabolized) are used as controls to test the activity of the microsomal proteins. Table 15 and 16 below show the microsomal stability of select compounds in both human and Rat microsomes.

The nature of data set [5]: In-vitro rat microsomal stability. The data set is classed as in vitro ADME. The settings on record: rat microsomes, compound 1 microMoles, at T = 60 minutes. Here is the method: as §1
The target of data set [6] is Catalytic domain of MMP-2 (human recombinant) (Homo sapiens (Human), UniProt P08253). The data set is described as follows: MMP-2 inhibition assay. The settings on record: read-out: Average Percent Inhibition MMP-2.
Sequence of Catalytic domain of MMP-2 (human recombinant) (P08253 110-465): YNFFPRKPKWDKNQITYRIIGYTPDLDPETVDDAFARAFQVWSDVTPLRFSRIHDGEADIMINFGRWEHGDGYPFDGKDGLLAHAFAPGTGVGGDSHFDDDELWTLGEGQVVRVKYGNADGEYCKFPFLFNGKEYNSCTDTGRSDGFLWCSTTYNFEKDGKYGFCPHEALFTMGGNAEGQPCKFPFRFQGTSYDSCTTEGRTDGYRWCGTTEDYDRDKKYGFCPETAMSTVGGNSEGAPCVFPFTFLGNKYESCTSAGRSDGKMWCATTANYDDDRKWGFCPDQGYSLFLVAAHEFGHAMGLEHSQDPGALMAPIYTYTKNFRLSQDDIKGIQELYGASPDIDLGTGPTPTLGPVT
Experimental: A concentration of MMP inhibitor of the present invention was tested (10 microMolar) in duplicate runs. Catalytic domain of MMP-2 (human recombinant) enzyme (10 nanoMolar) was added to the compound solution. The mixture of enzyme and compound in assay buffer was then thoroughly mixed and incubated for 60 minutes at 37° C. Upon the completion of incubation, the assay was then started by the addition of 10 μM of fluorescent substrate Mca-P-L-G-L-Dpa-A-R-NH2 (Kd ˜8 microMolar). The fluorescent product, McaPLG, was then measured at excitation of 355 nm and emission 405 nm by an automatic plate multireader at 37° C. […] Any inhibition <50% is considered not active under these assay conditions.
In data set [7] the target is Catalytic domain of MMP-9 (human recombinant) (Homo sapiens (Human), UniProt P14780). The data set is described as follows: MMP-9 inhibition assay. The data set is classed as biochemical. The conditions noted are these: compound 10 microMolar; substrate DNP-Pro-Cha-Gly-Cys(Me)-His-Ala-Lys(N-Me-Abz)-NH2 10 microMolar; <50% considered not active; read-out: Average Percent Inhibition MMP-9.
Sequence of Catalytic domain of MMP-9 (human recombinant) (P14780 107-444): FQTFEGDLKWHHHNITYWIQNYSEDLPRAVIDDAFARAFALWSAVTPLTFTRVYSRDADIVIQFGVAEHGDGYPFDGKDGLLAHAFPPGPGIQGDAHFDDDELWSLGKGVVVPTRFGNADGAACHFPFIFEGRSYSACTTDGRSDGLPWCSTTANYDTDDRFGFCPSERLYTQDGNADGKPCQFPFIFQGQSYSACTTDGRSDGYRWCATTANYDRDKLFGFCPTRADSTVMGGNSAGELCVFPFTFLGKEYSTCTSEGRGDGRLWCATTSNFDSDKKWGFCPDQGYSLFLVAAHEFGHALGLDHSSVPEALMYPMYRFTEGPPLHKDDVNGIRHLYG
Experimental: A concentration of MMP inhibitor of the present invention was tested (10 microMolar) in duplicate runs. Catalytic domain of MMP-9 (human recombinant) enzyme (10 nanoMolar) was added to the compound solution. The mixture of enzyme and compound in assay buffer was then thoroughly mixed and incubated for 60 minutes at 37° C. Upon the completion of incubation, the assay was started by the addition of 10 μM of fluorescent substrate DNP-Pro-Cha-Gly-Cys(Me)-His-Ala-Lys(N-Me-Abz)-NH2 [Cha=β-cyclohexylalanyl; Abz=2-aminobenzoyl(anthraniloyl)] (Kd ˜7 microMolar). […] Any inhibition <50% is considered not active under these assay conditions.

The target of data set [8] is Catalytic domain of MMP-1 (human recombinant) (Homo sapiens (Human), UniProt P03956). The data set is described as follows: MMP-1 inhibition assay. It is filed as biochemical. The conditions noted are these: compound 10 microMolar; substrate 10 microMolar; <50% considered not active; read-out: Average Percent Inhibition MMP-1.
Sequence of Catalytic domain of MMP-1 (human recombinant) (P03956 98-276): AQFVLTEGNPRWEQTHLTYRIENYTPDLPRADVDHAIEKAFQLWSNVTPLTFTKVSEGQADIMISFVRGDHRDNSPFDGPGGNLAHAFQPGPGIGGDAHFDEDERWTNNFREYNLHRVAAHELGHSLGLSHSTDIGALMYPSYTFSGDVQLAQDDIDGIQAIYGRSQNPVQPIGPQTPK
Data set [9] has as its target Catalytic domain of MMP-3 (human recombinant) (Homo sapiens (Human), UniProt P08254). The data set is described as follows: MMP-3 inhibition assay. The data set is classed as biochemical. The settings on record: compound 10 microMolar; substrate McaRPKPVENvalWRK(Dnp)NH2 10 microMolar; <50% considered not active; read-out: Average Percent Inhibition MMP-3. Here is the method:
Catalytic domain of MMP-3 (human recombinant) enzyme was then added to the compound solution. […] A positive control was then run separately using the broad spectrum MMP inhibitor Tyr-hydroxamic acid as a control compound. […]

Another data set has as its target MMP-12 (Homo sapiens (Human), UniProt P39900). The data set is described as follows: MMP-12 inhibition assay (electrophoretic mobility shift). The data set is classed as biochemical. The settings on record: compound 10 microMolar; Fluorescein-labeled peptide 4 microMolar; <50% considered not active; read-out: Average Percent Inhibition MMP-12. Here is the method: MMP-12 inhibitor activity was carried out by first separating the cleaved and uncleaved substrates by charge via electrophoretic mobility shift and then measuring the fluorescence of the separated products and comparing them with control reactions to determine inhibition of enzyme activity. The MMP-12 assay was then run using an assay buffer comprising of 100 mM HEPES, pH 7.5, 0.01% Brij-35, 1.5 mM NaCl and 2 mM CaCl2. […] The reaction was started by first adding the substrate and then incubating the reaction mixture for 1 hour at room temperature. The reaction was then terminated via the addition of a stop buffer consisting of 100 mM HEPES (pH 7.5), 30 mM EDTA, 0.015% Brij-35, and 5% DMSO. […]

Sequence of Catalytic domain of MMP-3 (human recombinant) (P08254 100-272): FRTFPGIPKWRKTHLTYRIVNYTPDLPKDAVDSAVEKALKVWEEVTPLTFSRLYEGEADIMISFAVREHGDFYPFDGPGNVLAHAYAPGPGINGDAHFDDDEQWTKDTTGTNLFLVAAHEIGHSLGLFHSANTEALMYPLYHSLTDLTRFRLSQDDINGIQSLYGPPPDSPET
Sequence of MMP-12 (P39900 106-470, species assumed): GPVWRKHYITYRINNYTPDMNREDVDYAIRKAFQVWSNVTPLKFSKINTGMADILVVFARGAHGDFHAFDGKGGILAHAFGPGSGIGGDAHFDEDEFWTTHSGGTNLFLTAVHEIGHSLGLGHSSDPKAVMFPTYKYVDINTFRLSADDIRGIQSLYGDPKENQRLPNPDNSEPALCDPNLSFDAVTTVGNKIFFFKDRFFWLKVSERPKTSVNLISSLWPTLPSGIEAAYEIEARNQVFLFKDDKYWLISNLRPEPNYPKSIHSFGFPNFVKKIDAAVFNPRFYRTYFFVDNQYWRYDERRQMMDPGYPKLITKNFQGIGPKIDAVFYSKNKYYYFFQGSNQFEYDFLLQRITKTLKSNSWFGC

As to `[2H]C([2H])(NC(=O)c1cc(C(=O)NCc2cccc(OC)c2)ncn1)c1ccc(C(=O)O)cc1`, the IC50 in data set [1] was < 100 nM. For the molecule `Cc1cc(CNC(=O)c2cc(C(=O)NCc3ccc(C(=O)O)cc3)ncn2)ccc1F` [Compound 45, 4-({[6-(4-Fluoro-3-methyl-benzylcarbamoyl)-pyrimidine-4-carbonyl]-amino}-methyl)-benzoic acid], in data set [2], the AUC(0-inf) turned out to be 428 ng·h/mL, the exposure AUC(0-t) was determined as 414 ng·h/mL, the peak level (Cmax) was 310 ng/mL and the time to peak (Tmax) stood at 24.6 min. The molecule further had a half-life in data set [2] of 110 min.

As to `[2H]C([2H])(NC(=O)c1cc(C(=O)NCc2ccc(F)c(C)c2)ncn1)c1ccc(C(=O)O)cc1` [Compound 56, 4-(Dideutero-{[6-(4-fluoro-3-methyl-benzylcarbamoyl)-pyrimidine-4-carbonyl]-amino}-methyl)-benzoic acid], in [2], the AUC(0-inf) worked out at 705 ng·h/mL, the AUC(0-t) stood at 697 ng·h/mL, the concentration peaked (Cmax) at 362 ng/mL and the Tmax is 45 min. The molecule also had a half-life in data set [2] of 73.2 min. Turning to `CNC(=O)[C@@H](NC(=O)[C@H](CC(C)C)[C@H](O)C(=O)NO)C(C)(C)C` [Marimastat, marimastat], the Toxicities in humans entry in [3] was “time-dependent and dose-dependent musculoskeletal toxicities (arthralgia, myalgia, tendinitis)”.

Turning to `Cc1cc(CNC(=O)c2cc(C(=O)NCc3ccc(C(=O)O)cc3)ncn2)ccc1F` [drawing 264], the “Mean Remaining Parent with NADPH (%)” value in data set [4] is reported as 103%. The same measure, in the same setting: the result for `[2H]C([2H])(NC(=O)c1cc(C(=O)NCc2ccc(F)c(C)c2)ncn1)c1ccc(C(=O)O)cc1` [drawing 265] reads 104%. Still for that read-out and setting: for `[2H]C([2H])(NC(=O)c1cc(C(=O)NCc2ccc(C(=O)O)cc2)ncn1)c1ccc(F)c(C)c1` [drawing 266] the value was 95.6%. The same measure, in the same setting: the result for `COc1cccc(CNC(=O)c2cc(C(=O)NCc3ccc(-c4nnn[nH]4)cc3)ncn2)c1` [drawing 267] reads 88.1%; that for `[2H]C([2H])(NC(=O)c1cc(C(=O)NCc2ccc(-c3nn[nH]n3)cc2)ncn1)c1cccc(OC)c1` [drawing 268], 95.3%. `Cc1cc(CNC(=O)c2cc(C(=O)NCc3ccc(F)c(C)c3)ncn2)ccc1F` [drawing 269]: the “Mean Remaining Parent with NADPH (%)” value in [4] came out at 5.3%.

Regarding `[2H]C([2H])(NC(=O)c1cc(C(=O)NC([2H])([2H])c2ccc(F)c(C)c2)ncn1)c1ccc(F)c(C)c1` [drawing 270], the “Mean Remaining Parent with NADPH (%)” value in data set [4] is given as 5.5%. As for `Cc1cc(CNC(=O)c2cc(C(=O)NCc3ccc(C(=O)O)cc3)ncn2)ccc1F` [drawing 271], the “% Mean Remaining Parent with NADPH (%)” value in data set [5] stood at 90.7%. Same read-out and setting: for `[2H]C([2H])(NC(=O)c1cc(C(=O)NCc2ccc(C(=O)O)cc2)ncn1)c1ccc(F)c(C)c1` [drawing 272] the value was 87.4%; for `[2H]C([2H])(NC(=O)c1cc(C(=O)NCc2ccc(F)c(C)c2)ncn1)c1ccc(C(=O)O)cc1` [drawing 273], 98.5%.

`COc1cccc(CNC(=O)c2cc(C(=O)NCc3ccc(-c4nnn[nH]4)cc3)ncn2)c1` [drawing 274]: the “% Mean Remaining Parent with NADPH (%)” value in data set [5] came out at 52.8%. Turning to `[2H]C([2H])(NC(=O)c1cc(C(=O)NCc2ccc(-c3nn[nH]n3)cc2)ncn1)c1cccc(OC)c1` [drawing 275], the “% Mean Remaining Parent with NADPH (%)” value in data set [5] is recorded as 57.4%.

Consider `Cc1cc(CNC(=O)c2cc(C(=O)NCc3ccc(F)c(C)c3)ncn2)ccc1F` [drawing 276], for which the “% Mean Remaining Parent with NADPH (%)” value in [5] turned out to be 0.6%.

For `[2H]C([2H])(NC(=O)c1cc(C(=O)NC([2H])([2H])c2ccc(F)c(C)c2)ncn1)c1ccc(F)c(C)c1` [drawing 277], the “% Mean Remaining Parent with NADPH (%)” value in data set [5] was determined as 1.7%. Turning to `[2H]C([2H])(NC(=O)c1cc(C(=O)NCc2ccc(C(=O)O)cc2)ncn1)c1ccc(F)c(C)c1` [drawing 278], in data set [6], the inhibition at 10 µM came to 8.19%. For `[2H]C([2H])(NC(=O)c1cc(C(=O)NCc2ccc(C(=O)O)cc2)ncn1)c1ccc(F)c(C)c1` [drawing 279], the inhibition at 10 µM in data set [7] was 2.39%. Turning to `[2H]C([2H])(NC(=O)c1cc(C(=O)NCc2ccc(C(=O)O)cc2)ncn1)c1ccc(F)c(C)c1` [drawing 280], the inhibition at 10 µM in [8] was found to be 1.83%. For `[2H]C([2H])(NC(=O)c1cc(C(=O)NCc2ccc(C(=O)O)cc2)ncn1)c1ccc(F)c(C)c1` [drawing 281], the inhibition at 10 µM in data set [9] came to 1.31%. For the molecule `[2H]C([2H])(NC(=O)c1cc(C(=O)NCc2ccc(C(=O)O)cc2)ncn1)c1ccc(F)c(C)c1` [drawing 282], the inhibition at 10 µM at MMP-12 stood at 0.68%. With `[2H]C([2H])(NC(=O)c1cc(C(=O)NCc2ccc(-c3nn[nH]n3)cc2)ncn1)c1cccc(OC)c1` [drawing 283], the inhibition at 1 µM in data set [1] (read-out: Average Percent Inhibition MMP-13) was determined as 92%.

With `[2H]C([2H])(NC(=O)c1cc(C(=O)NCc2ccc(C(=O)O)cc2)ncn1)c1ccc(F)c(C)c1` [drawing 284], the IC50 in data set [1] is < 100 nM. For `[2H]C([2H])(NC(=O)c1cc(C(=O)NCc2ccc(F)c(C)c2)ncn1)c1ccc(C(=O)O)cc1` [drawing 285], the IC50 in [1] was < 100 nM.

The record behind these values is US9505743B2, “Matrix metalloproteinase inhibitors and methods for the treatment of pain and other diseases” (AQUILUS PHARMACEUTICALS, INC., priority 2012, dated 2016).
